# Measurements reported in patent publication US8450313B2, “2,3-diaryl- or heteroaryl-substituted 1,1,1-trifluoro-2-hydroxypropyl compounds” (Hoffmann-La Roche Inc., priority 2009, dated 2013).
# Target: T1, full length human recombinant glucocorticoid receptor (Homo sapiens, UniProt P04150)
# T1 construct: It contains some partially purified full length human recombinant glucocorticoid receptor; purchased Panvera/Invitrogen PV4302
# T1 sequence (P04150 1-777): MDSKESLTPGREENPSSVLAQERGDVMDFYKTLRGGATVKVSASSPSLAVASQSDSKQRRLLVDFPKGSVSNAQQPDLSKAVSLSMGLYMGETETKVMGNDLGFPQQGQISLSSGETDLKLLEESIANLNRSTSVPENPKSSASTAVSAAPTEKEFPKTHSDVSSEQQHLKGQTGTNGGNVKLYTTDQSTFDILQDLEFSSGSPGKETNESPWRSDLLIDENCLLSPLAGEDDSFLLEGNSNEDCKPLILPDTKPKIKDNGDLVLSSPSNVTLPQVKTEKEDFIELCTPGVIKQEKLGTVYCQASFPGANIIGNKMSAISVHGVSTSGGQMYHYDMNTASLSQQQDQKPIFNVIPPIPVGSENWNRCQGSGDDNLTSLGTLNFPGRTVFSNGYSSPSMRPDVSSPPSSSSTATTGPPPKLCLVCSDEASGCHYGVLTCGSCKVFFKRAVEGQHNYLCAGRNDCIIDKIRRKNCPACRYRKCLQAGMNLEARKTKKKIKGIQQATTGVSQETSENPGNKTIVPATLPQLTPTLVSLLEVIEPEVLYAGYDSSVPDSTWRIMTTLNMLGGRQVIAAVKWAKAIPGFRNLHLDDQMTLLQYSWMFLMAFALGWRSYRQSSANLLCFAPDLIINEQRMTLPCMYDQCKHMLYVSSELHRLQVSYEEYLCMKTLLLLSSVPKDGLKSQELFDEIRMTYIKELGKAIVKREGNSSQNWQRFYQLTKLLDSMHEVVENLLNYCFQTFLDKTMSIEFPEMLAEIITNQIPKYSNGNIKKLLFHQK
# Assay: Glucocorticoid Receptor Binding Assay (Glucocorticoid Receptor Competitor Assay far red kit, fluorescence polarization)
# Settings: competition with fluorescent GR ligand Fluormone GS Far Red, 3 hours at 22° C., pH 7.4; Ki calculated from IC50 by Cheng-Prusoff
# How it was run: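 Compounds in serial dilution (from intermediate 4.2% DMSO stock) displace Fluormone GS Far Red from full-length human recombinant GR with stabilizing peptide, pH 7.4, incubated 3 hours at 22° C dark. Polarized fluorescence (610–660 nm) gives IC50 via sigmoidal fit, converted to Ki by Cheng-Prusoff.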
row,SMILES,Ki
1,"C[C@@H](c1ccc(-c2cccc(CC(=O)O)c2)cc1Cl)[C@](O)(c1ccc2c(c1)N(C)C(=O)CO2)C(F)(F)F (relative stereo) [Example 41, {3′-Chloro-4′-[3,3,3-trifluoro-2-hydroxy-1-methyl-2-(4-methyl-3-oxo-3,4-dihydro-2H-benzo[1,4]oxazin-6-yl)-propyl]-biphenyl-3-yl}-acetic acid]",1.5 nM
2,"C[C@@H](c1ccc(C(=O)O)cc1Cl)[C@](O)(c1ccc2c(c1)N(C)C(=O)CO2)C(F)(F)F (relative stereo) [Example 43, 3-Chloro-4-[3,3,3-trifluoro-2-hydroxy-1-methyl-2-(4-methyl-3-oxo-3,4-dihydro-2H-benzo[1,4]oxazin-6-yl)-propyl]-benzoic acid]",261 nM
3,"C[C@@H](c1ccc(Oc2ccc(CC(=O)O)cc2)cc1Cl)[C@](O)(c1ccc2c(c1)N(C)C(=O)CO2)C(F)(F)F (relative stereo) [Example 44, (4-{3-Chloro-4-[3,3,3-trifluoro-2-hydroxy-1-methyl-2-(4-methyl-3-oxo-3,4-dihydro-2H-benzo[1,4]oxazin-6-yl)-propyl]-phenoxy}-phenyl)-acetic acid]",3.2 nM
4,"COC(=O)c1ccc(-c2ccc([C@H](C)[C@](O)(c3cc(F)c4c(c3)N(C)C(=O)CO4)C(F)(F)F)c(Cl)c2)cc1F (relative stereo) [Example 45, 3′-Chloro-3-fluoro-4′-[3,3,3-trifluoro-2-(8-fluoro-4-methyl-3-oxo-3,4-dihydro-2H-benzo[1,4]oxazin-6-yl)-2-hydroxy-1-methyl-propyl]-biphenyl-4-carboxylic acid methyl ester]",2.1 nM
5,"C[C@@H](c1ccc(-c2ccc(C(=O)O)c(F)c2)cc1Cl)[C@](O)(c1cc(F)c2c(c1)N(C)C(=O)CO2)C(F)(F)F (relative stereo) [Example 46, 3′-Chloro-3-fluoro-4′-[3,3,3-trifluoro-2-(8-fluoro-4-methyl-3-oxo-3,4-dihydro-2H-benzo[1,4]oxazin-6-yl)-2-hydroxy-1-methyl-propyl]-biphenyl-4-carboxylic acid]",10.9 nM
6,"CCOC(=O)COc1cc(-c2ccc([C@H](C)[C@](O)(c3cc(F)c4c(c3)N(C)C(=O)CO4)C(F)(F)F)c(Cl)c2)ccc1F (relative stereo) [Example 47, {3′-Chloro-4-fluoro-4′-[3,3,3-trifluoro-2-(8-fluoro-4-methyl-3-oxo-3,4-dihydro-2H-benzo[1,4]oxazin-6-yl)-2-hydroxy-1-methyl-propyl]-biphenyl-3-yloxy}-acetic acid ethyl ester]",2 nM
7,"COC(=O)c1ccc(-c2ccc([C@@H](C)[C@@](O)(c3cccc4c3OCC(=O)N4C)C(F)(F)F)c(Cl)c2)cc1F (relative stereo) [Example 53, 3′-Chloro-3-fluoro-4′-[3,3,3-trifluoro-2-hydroxy-1-methyl-2-(4-methyl-3-oxo-3,4-dihydro-2H-benzo[1,4]oxazin-8-yl)-propyl]-biphenyl-4-carboxylic acid methyl ester]",66.1 nM
8,"CCN1C(=O)COc2ccc([C@](O)([C@H](C)c3ccc(-c4ccc(C(=O)O)c(F)c4)cc3Cl)C(F)(F)F)cc21 (relative stereo) [Example 65, 3′-Chloro-4′-[2-(4-ethyl-3-oxo-3,4-dihydro-2H-benzo[1,4]oxazin-6-yl)-3,3,3-trifluoro-2-hydroxy-1-methyl-propyl]-3-fluoro-biphenyl-4-carboxylic acid]",128 nM
9,"CCN1C(=O)COc2ccc([C@](O)([C@H](C)c3ccc(-c4ccc(Cl)c(C(=O)O)c4)cc3Cl)C(F)(F)F)cc21 (relative stereo) [Example 66, 4,3′-Dichloro-4′-[2-(4-ethyl-3-oxo-3,4-dihydro-2H-benzo[1,4]oxazin-6-yl)-3,3,3-trifluoro-2-hydroxy-1-methyl-propyl]-biphenyl-3-carboxylic acid]",191 nM
10,"CCN1C(=O)COc2ccc([C@](O)([C@H](C)c3ccc(-c4ccc(F)c(C(=O)O)c4)cc3Cl)C(F)(F)F)cc21 (relative stereo) [Example 67, 3′-Chloro-4′-[2-(4-ethyl-3-oxo-3,4-dihydro-2H-benzo[1,4]oxazin-6-yl)-3,3,3-trifluoro-2-hydroxy-1-methyl-propyl]-4-fluoro-biphenyl-3-carboxylic acid]",40.2 nM
11,"CCN1C(=O)COc2ccc([C@](O)([C@H](C)c3ccc(Oc4cc(C(F)(F)F)c(C(=O)O)cn4)cc3Cl)C(F)(F)F)cc21 (relative stereo) [Example 68, 6-{3-Chloro-4-[2-(4-ethyl-3-oxo-3,4-dihydro-2H-benzo[1,4]oxazin-6-yl)-3,3,3-trifluoro-2-hydroxy-1-methyl-propyl]-phenoxy}-4-trifluoromethyl-nicotinic acid]",59.8 nM
12,"CCN1C(=O)COc2ccc([C@@](O)([C@@H](C)c3ccc(Oc4ccc(C(=O)O)c(Cl)n4)cc3Cl)C(F)(F)F)cc21 (relative stereo) [Example 69, 2-Chloro-6-{3-chloro-4-[2-(4-ethyl-3-oxo-3,4-dihydro-2H-benzo[1,4]oxazin-6-yl)-3,3,3-trifluoro-2-hydroxy-1-methyl-propyl]-phenoxy}-nicotinic acid]",35.9 nM
13,"COC(=O)c1ccc(-c2ccc([C@@H](C)[C@@](O)(c3ccc4c(c3)NC(=O)CO4)C(F)(F)F)c(Cl)c2)cc1F (relative stereo) [Example 71, 3′-Chloro-3-fluoro-4′-[3,3,3-trifluoro-2-hydroxy-1-methyl-2-(3-oxo-3,4-dihydro-2H-benzo[1,4]oxazin-6-yl)-propyl]-biphenyl-4-carboxylic acid methyl ester]",28.1 nM
14,"C[C@H](c1ccc(-c2ccc(C(=O)O)c(F)c2)cc1Cl)[C@@](O)(c1ccc2c(c1)NC(=O)CO2)C(F)(F)F (relative stereo) [Example 72, 3′-Chloro-3-fluoro-4′-[3,3,3-trifluoro-2-hydroxy-1-methyl-2-(3-oxo-3,4-dihydro-2H-benzo[1,4]oxazin-6-yl)-propyl]-biphenyl-4-carboxylic acid]",222 nM
15,"C[C@H](c1ccc(-c2ccc(C(=O)O)nc2)cc1Cl)[C@@](O)(c1ccc2c(c1)n(C)c(=O)n2C)C(F)(F)F (relative stereo) [Example 84, 5-{3-Chloro-4-[2-(1,3-dimethyl-2-oxo-2,3-dihydro-1H-benzoimidazol-5-yl)-3,3,3-trifluoro-2-hydroxy-1-methyl-propyl]-phenyl}-pyridine-2-carboxylic acid]",11.9 nM
16,"C[C@H](c1ccc(Oc2ccccc2C(=O)O)cc1Cl)[C@@](O)(c1ccc2c(c1)n(C)c(=O)n2C)C(F)(F)F (relative stereo) [Example 96, 2-{3-Chloro-4-[2-(1,3-dimethyl-2-oxo-2,3-dihydro-1H-benzoimidazol-5-yl)-3,3,3-trifluoro-2-hydroxy-1-methyl-propyl]-phenoxy}-benzoic acid]",2.4 nM
17,"COc1cc(Oc2ccc([C@@H](C)[C@@](O)(c3ccc4c(c3)n(C)c(=O)n4C)C(F)(F)F)c(Cl)c2)ccc1C(=O)O (relative stereo) [Example 97, 4-{3-Chloro-4-[2-(1,3-dimethyl-2-oxo-2,3-dihydro-1H-benzoimidazol-5-yl)-3,3,3-trifluoro-2-hydroxy-1-methyl-propyl]-phenoxy}-2-methoxy-benzoic acid]",5 nM
18,"C[C@H](c1ccc(Oc2ccc(C(=O)O)cc2)cc1Cl)[C@@](O)(c1ccc2c(c1)n(C)c(=O)n2C)C(F)(F)F (relative stereo) [Example 98, 4-{3-Chloro-4-[2-(1,3-dimethyl-2-oxo-2,3-dihydro-1H-benzoimidazol-5-yl)-3,3,3-trifluoro-2-hydroxy-1-methyl-propyl]-phenoxy}-benzoic acid]",1.6 nM
19,"C[C@H](c1ccc(Oc2cccc(C(=O)O)c2)cc1Cl)[C@@](O)(c1ccc2c(c1)n(C)c(=O)n2C)C(F)(F)F (relative stereo) [Example 99, 3-{3-Chloro-4-[2-(1,3-dimethyl-2-oxo-2,3-dihydro-1H-benzoimidazol-5-yl)-3,3,3-trifluoro-2-hydroxy-1-methyl-propyl]-phenoxy}-benzoic acid]",1.2 nM
20,"C[C@@H](c1ccc(Oc2cc(C(F)(F)F)c(C(=O)O)cn2)cc1Cl)[C@](O)(c1ccc2c(c1)n(C)c(=O)n2C)C(F)(F)F (relative stereo) [Example 102, 6-{3-Chloro-4-[2-(1,3-dimethyl-2-oxo-2,3-dihydro-1H-benzoimidazol-5-yl)-3,3,3-trifluoro-2-hydroxy-1-methyl-propyl]-phenoxy}-4-trifluoromethyl-nicotinic acid]",0.5 nM
21,"C[C@H](c1ccc(Oc2ccc(C(=O)O)c(Cl)c2)cc1Cl)[C@](O)(c1ccc2c(c1)OCO2)C(F)(F)F (relative stereo) [Example 103, 4-[4-(2-Benzo[1,3]dioxol-5-yl-3,3,3-trifluoro-2-hydroxy-1-methyl-propyl)-3-chloro-phenoxy]-2-chloro-benzoic acid]",23.1 nM
